Reference: patent US9591978B2, “Methods and compositions for pre-screening patients for treatment with noribogaine” (DemeRX, Inc., priority 2014, dated 2017)
Entries after “also recorded” stand apart in the source; their conditions may differ.

Key:
[1] = Pharmacokinetics of noribogaine in healthy volunteers (plasma, LCMSMS); conditions: for AUC0-216 / AUC0-∞ / Cmax / Tmax / t1/2 / CL/F: healthy male volunteers, fasted, n = 6, mean (SD); for mean AUC/24 hr / mean AUC/24: fasting conditions
[2] = test system: opioid-dependent participants; test: Opiate withdrawal scales (COWS, SOWS, OOWS); assay type: in vivo, human; conditions: first six hours following dosing
Description: Patients were evaluated based on the Clinical Opiate Withdrawal Scale (COWS), Subjective Opiate Withdrawal Scale (SOWS), and Objective Opiate Withdrawal Scale (OOWS) scoring systems over the period of time between administration of noribogaine (or placebo) until resumption of OST. These scales are outlined in Guidelines for the Psychosocially Assisted Pharmacological Treatment of Opioid Dependence, World Health Organization, Geneva (2009), Annex 10, which is incorporated herein by reference in its entirety. The scales measure the intensity of withdrawal symptoms, based on clinical, subjective, and objective indicia.

[3] = test system: healthy, drug-free male volunteers; test: Safety and tolerability of noribogaine in healthy humans; assay type: in vivo, human
Description: (§1) Pulse oximetry and capnography data were collected continuously using a GE Carescape B650 monitoring system from 2 hours prior to dosing and until six hours after dosing, and thereafter at 12, 24, 48 and 72 hours post-dosing. […] Pupillary miosis was assessed by pupillometry.
(§2) Safety and tolerability of noribogaine were tested in the group of volunteers from Example 1. […] Safety evaluations included clinical monitoring, recording of adverse events (AEs), safety laboratory tests, vital signs, ECG telemetry from −2 h to 6 h after dosing, and 12-lead electrocardiograms (ECGs) up to 216 hours post-dosing.

[4] = test system: opioid-dependent participants; test: Time to resumption of opioid substitution treatment (OST); assay type: in vivo, human; conditions: for therapeutic response: methadone addicted patients
[5] = test system: opioid-dependent participants; test: Treatment emergent adverse events in opioid-dependent participants
[6] = test system: healthy, drug-free male volunteers; test: Pupillometry (pupillary miosis) in healthy volunteers; assay type: in vivo, human
Description: as §1
Summary statistics (means, standard deviations, and coefficients of variation) were determined for each dose group for safety laboratory test data, ECG and pharmacokinetic parameters, and pharmacodynamic variables. Categorical variables were analysed using counts and percentages. Dose-proportionality of AUC and Cmax was assessed using linear regression. The effect of dose on pharmacodynamic parameter values over time was assessed using two-factor analysis of variance (ANOVA). Pairwise comparisons (with Tukey-Kramer adjustment) between each dose group to the placebo were conducted at each time point using the least squares estimates obtained from the ANOVA, using SAS Proc Mixed (SAS ver 6.0).

[7] = test system: opioid-dependent participants; test: QT interval prolongation in opioid-dependent patients; assay type: in vivo, human
Description: Patients' QT intervals were evaluated at regular time points throughout the study.

[8] = Pharmacokinetics in opioid-dependent patients (Phase IB study); conditions: 60-180 mg
[9] = test system: healthy, drug-free male volunteers; test: Cold pressor test (analgesic effect) in healthy volunteers; assay type: in vivo, human
Description: Analgesic effect was assessed based on duration of hand immersion in ice water and on visual analog scale (VAS) pain scores upon hand removal from the water bath.
as §2

[10] = 30 mg and 60 mg noribogaine dose groups
[11] = opioid-dependent participants, 60, 120, 180 mg
[12] = opioid-dependent patients, single 60 mg noribogaine dose, N = 6
[13] = opioid-dependent patients, single 120 mg noribogaine dose, N = 6
[14] = opioid-dependent patients, single 180 mg noribogaine dose, N = 6
[15] = after adjusting for baseline, p>0.9

SMILES: CC[C@H]1C[C@@H]2C[C@H]3c4[nH]c5ccc(OC6OC(C(=O)O)C(O)C(O)C6O)cc5c4CCN(C2)[C@@H]13 (some centres unmarked) [Noribogaine glucuronide, noribogaine glucuronide]
- mean half-life in plasma [1, 10]: 21 to 23 h
- time by which detected in plasma of all subjects [1, 10]: ≤ 0.75 h
- time of peak concentrations after noribogaine dosing [1, 10]: 3 to 4 h
- proportion of Cmax and AUC relative to noribogaine ([1]; both dose groups (30 mg, 60 mg)): 3-4%
- AUC0-216 ([1]; single oral 30 mg noribogaine): 25.7 (9.1) ng · hr/ml
- AUC0-∞ ([1]; single oral 30 mg noribogaine): 25.8 (9.3) ng · hr/ml
- Cmax ([1]; single oral 30 mg noribogaine): 1.8 (0.6) ng/ml
- Tmax ([1]; single oral 30 mg noribogaine): 3.0 (0.6) hr
- t1/2 ([1]; single oral 30 mg noribogaine): 20.6 (4.9) hr
- AUC0-216 ([1]; single oral 60 mg noribogaine): 65.0 (21.5) ng · hr/ml
- AUC0-∞ ([1]; single oral 60 mg noribogaine): 67.1 (21.9) ng · hr/ml
- Cmax ([1]; single oral 60 mg noribogaine): 4.1 (1.2) ng/ml
- Tmax ([1]; single oral 60 mg noribogaine): 3.8 (1.2) hr
- t1/2 ([1]; single oral 60 mg noribogaine): 23.1 (3.0) hr

SMILES: CC[C@H]1CC2C[C@H]3c4[nH]c5ccc(O)cc5c4CCN(C2)C13 [noribogaine]
- withdrawal symptoms (COWS, OOWS, SOWS) ([2]; 120 mg): generally experienced fewer withdrawal symptoms than the other patients
- withdrawal symptoms compared with placebo (COWS, OOWS, SOWS) ([2]; 60, 120, 180 mg): Patients administered placebo generally experienced more withdrawal symptoms than patients who were administered noribogaine
- adverse events reported ([3]; 3 mg dose group, by two subjects): five
- adverse events reported ([3]; 10 mg dose group, single subject): one
- adverse events reported ([3]; 30 mg dose group, single subject): one
- intensity of adverse events ([3]; all adverse events of the study, all resolved prior to study completion): mild-moderate
- Adverse events: Mild ([3]; healthy volunteers, 3 mg): Dizziness; also recorded: Epistaxis; also recorded: Headache; also recorded: Back pain
- Adverse events: Moderate ([3]; healthy volunteers, 3 mg): Headache
- Adverse events: Mild ([3]; healthy volunteers, 10 mg): Headache
- Adverse events: Mild ([3]; healthy volunteers, 30 mg): Headache
- oximetry, capnography, respiratory rate ([3]; healthy volunteers, 3-60 mg): no changes in oximetry or capnography, or changes in respiratory rate
- vital signs and safety laboratory tests ([3]; healthy volunteers, 3-60 mg): no changes in vital signs or safety laboratory tests of note
- QTcF values ([3]; healthy volunteers, at any time): ≤ 500 ms
- increase in QTcF ([3]; one subject dosed with 10 mg, single increase at 24 hours post-dosing): > 60 ms
- time to resumption of opioid substitution therapy compared with 60 mg ([4]; 120 mg): significantly longer
- time to resumption of OST compared with untreated patients or 60 mg noribogaine ([4]; 180 mg): still longer
- therapeutic response ([4]; single 60 mg dosing): generally does not provide a meaningful therapeutic response
- therapeutic response ([4]; single 120 mg dosing): generally provides a meaningful therapeutic response
- average time to resumption of opioids ([4]; single 120 mg dose): greater than 20 hours
- CL/F ([1]; single oral 3 mg noribogaine): 41.4 (7.0) L/h
- CL/F ([1]; single oral 10 mg noribogaine): 42.3 (12.0) L/h
- CL/F ([1]; single oral 30 mg noribogaine): 46.9 (16.4) L/h
- CL/F ([1]; single oral 60 mg noribogaine): 34.0 (11.4) L/h
- dose-proportionality of Cmax and AUC ([1]; healthy volunteers, 3-60 mg): increased linearly with dose
- time of peak concentrations after oral dosing ([1]; healthy volunteers, across 3-60 mg dose groups): 2 to 3 h
- mean half-life estimates ([1]; healthy volunteers, across dose groups): 28 to 50 h
- mean AUC/24 hr ([1]; single dose of 3 mg noribogaine free base): 3.1 ng/mL
- mean AUC/24 hr ([1]; single dose of 10 mg noribogaine free base): 10.6 ng/mL
- mean AUC/24 ([1]; single dose of 30 mg noribogaine free base): 29.2 ng/mL
- mean AUC/24 ([1]; single dose of 60 mg noribogaine free base): 61 ng/mL
- headaches ([5]; 60 mg noribogaine treatment group): frequent
- headaches ([5]; 120 mg dose group): attenuated
- headaches ([5]; 180 mg dose group): attenuated
- adverse effects observed [5, 11]: Few adverse effects
- hallucinatory effects [5, 11]: no hallucinatory effects
- Treatment emergent adverse events: Catheter Site Infection [5, 12]: 0
- Treatment emergent adverse events: Catheter Site Pain [5, 12]: 0
- Treatment emergent adverse events: Catheter Site Related Reaction [5, 12]: 0
- Treatment emergent adverse events: Cellulitis [5, 12]: 0
- Treatment emergent adverse events: Diarrhoea [5, 12]: 0
- Treatment emergent adverse events: Dry Mouth [5, 12]: 0
- Treatment emergent adverse events: Ear and Labyrinth Disorders [5, 12]: 0
- Treatment emergent adverse events: Epistaxis [5, 12]: 0
- Treatment emergent adverse events: Euphoric Mood [5, 12]: 0
- Treatment emergent adverse events: General Disorders and Administration Site Conditions [5, 12]: 0
- Treatment emergent adverse events: Hyperaesthesia [5, 12]: 0
- Treatment emergent adverse events: Infections and Infestations [5, 12]: 0
- Treatment emergent adverse events: Limb Discomfort [5, 12]: 0
- Treatment emergent adverse events: Malaise [5, 12]: 0
- Treatment emergent adverse events: Nausea [5, 12]: 0
- Treatment emergent adverse events: Oropharyngeal Pain [5, 12]: 0
- Treatment emergent adverse events: Pseudoparalysis [5, 12]: 0
- Treatment emergent adverse events: Respiratory, Thoracic and Mediastinal Disorders [5, 12]: 0
- Treatment emergent adverse events: Rhinorrhoea [5, 12]: 0
- Treatment emergent adverse events: Skin Discomfort [5, 12]: 0
- Treatment emergent adverse events: Skin Irritation [5, 12]: 0
- Treatment emergent adverse events: Skin and Subcutaneous Tissue Disorders [5, 12]: 0
- Treatment emergent adverse events: Somnoience [5, 12]: 0
- Treatment emergent adverse events: Tinnitus [5, 12]: 0
- Treatment emergent adverse events: Tremor [5, 12]: 0
- Treatment emergent adverse events: Urinary Tract Infection [5, 12]: 0
- Treatment emergent adverse events: Vomiting [5, 12]: 0
- Treatment emergent adverse events: Back Pain [5, 13]: 0
- Treatment emergent adverse events: Catheter Site Infection [5, 13]: 0
- Treatment emergent adverse events: Catheter Site Related Reaction [5, 13]: 0
- Treatment emergent adverse events: Depressed Mood [5, 13]: 0
- Treatment emergent adverse events: Dry Eye [5, 13]: 0
- Treatment emergent adverse events: Dyspepsia [5, 13]: 0
- Treatment emergent adverse events: Euphoric Mood [5, 13]: 0
- Treatment emergent adverse events: Limb Discomfort [5, 13]: 0
- Treatment emergent adverse events: Malaise [5, 13]: 0
- Treatment emergent adverse events: Musculoskeletal and Connective Tissue Disorders [5, 13]: 0
- Treatment emergent adverse events: Psychiatric Disorders [5, 13]: 0
- Treatment emergent adverse events: Somnoience [5, 13]: 0
- Treatment emergent adverse events: Urinary Tract Infection [5, 13]: 0
- Treatment emergent adverse events: Catheter Site Infection [5, 14]: 0
- Treatment emergent adverse events: Catheter Site Pain [5, 14]: 0
- Treatment emergent adverse events: Depressed Mood [5, 14]: 0
- Treatment emergent adverse events: Diarrhoea [5, 14]: 0
- Treatment emergent adverse events: Dry Eye [5, 14]: 0
- Treatment emergent adverse events: Dyspepsia [5, 14]: 0
- Treatment emergent adverse events: Ear and Labyrinth Disorders [5, 14]: 0
- Treatment emergent adverse events: Epistaxis [5, 14]: 0
- Treatment emergent adverse events: Euphoric Mood [5, 14]: 0
- Treatment emergent adverse events: Hyperaesthesia [5, 14]: 0
- Treatment emergent adverse events: Malaise [5, 14]: 0
- Treatment emergent adverse events: Oropharyngeal Pain [5, 14]: 0
- Treatment emergent adverse events: Pseudoparalysis [5, 14]: 0
- Treatment emergent adverse events: Psychiatric Disorders [5, 14]: 0
- Treatment emergent adverse events: Respiratory, Thoracic and Mediastinal Disorders [5, 14]: 0
- Treatment emergent adverse events: Rhinorrhoea [5, 14]: 0
- Treatment emergent adverse events: Skin Discomfort [5, 14]: 0
- Treatment emergent adverse events: Skin Irritation [5, 14]: 0
- Treatment emergent adverse events: Skin and Subcutaneous Tissue Disorders [5, 14]: 0
- Treatment emergent adverse events: Somnoience [5, 14]: 0
- Treatment emergent adverse events: Tinnitus [5, 14]: 0
- Treatment emergent adverse events: Tremor [5, 14]: 0
- pupil diameter, each dose group vs placebo by ANOVA [6, 15]: no statistically significant differences
- pupillary constriction ([6]; healthy volunteers, 3-60 mg single oral dose): no evidence of pupillary constriction
- QT interval prolongation (ΔQTcl) versus dose and serum concentration ([7]; 60, 120, 180 mg, first 24 hours post administration): dose-dependent increase in QT interval prolongation
- relation of QT interval prolongation to dose ([7]; doubling the dose gives about a doubling of the prolongation): linear pattern
- QT interval in some patients ([7]; patients receiving 120 mg): greater than 500 ms
- QT interval prolongation in some patients ([7]; patients receiving 120 mg): greater than 50 ms
- average QT interval prolongation ([7]; patients receiving 120 mg): approximately 38 ms
- maximum serum concentration (Cmax) versus dose [8]: increased in a dose-dependent manner
- VAS pain scores, each dose group vs placebo by ANOVA ([9]; after adjusting for baseline, p=0.17): no statistically significant differences
- duration of hand immersion, each dose group vs placebo by ANOVA [9, 15]: no statistically significant differences
- analgesic effect in the cold pressor test ([9]; healthy volunteers, 3-60 mg single oral dose, 1° C. water): no analgesic effect
